The values below come from publication PMC5094563 (Chemmedchem, 2016).

The target in one data set is p110α (Homo sapiens, UniProt P42336). The data set is described as follows: Biochemical IC50 assay.
The target of the next data set is p110β (Homo sapiens, UniProt P42338). The data set is described as follows: Biochemical IC50 assay.
The conditions of data set [1]: male Wistar rats; cited from earlier work.
For data set [2] the following is noted: all species investigated including mouse, rat, dog and monkey; cited from earlier work.
The conditions of data set [3]: female Beagle dogs; cited from earlier work.
Data set [4] deals with BCRP. The note with it: read-out: BCRP mediated transport inhibition IC50; for topotecan; cited from earlier work.
The conditions of data set [5]: male CD1 mice; cited from earlier work.
The test system of data set [6] is BCRP. The following applies: cited from earlier work.
For data set [7] the following is noted: male humans; cited from earlier work.
The subject of data set [8] is P‐gp. The following applies: read-out: P‐gp mediated transport inhibition IC50, cited from earlier work.
A further data set deals with Caco2. The note with it: 10 μM, absence of a P‐gp inhibitor; cited from earlier work.
For data set [9], the system named is P‐gp. The following applies: cited from earlier work.

One may read the IC50 as the point on the concentration scale where inhibition reaches its midpoint.

Read-outs that look alike come from different tables or passages of the source.

Sequence of p110β (P42338 109-1070): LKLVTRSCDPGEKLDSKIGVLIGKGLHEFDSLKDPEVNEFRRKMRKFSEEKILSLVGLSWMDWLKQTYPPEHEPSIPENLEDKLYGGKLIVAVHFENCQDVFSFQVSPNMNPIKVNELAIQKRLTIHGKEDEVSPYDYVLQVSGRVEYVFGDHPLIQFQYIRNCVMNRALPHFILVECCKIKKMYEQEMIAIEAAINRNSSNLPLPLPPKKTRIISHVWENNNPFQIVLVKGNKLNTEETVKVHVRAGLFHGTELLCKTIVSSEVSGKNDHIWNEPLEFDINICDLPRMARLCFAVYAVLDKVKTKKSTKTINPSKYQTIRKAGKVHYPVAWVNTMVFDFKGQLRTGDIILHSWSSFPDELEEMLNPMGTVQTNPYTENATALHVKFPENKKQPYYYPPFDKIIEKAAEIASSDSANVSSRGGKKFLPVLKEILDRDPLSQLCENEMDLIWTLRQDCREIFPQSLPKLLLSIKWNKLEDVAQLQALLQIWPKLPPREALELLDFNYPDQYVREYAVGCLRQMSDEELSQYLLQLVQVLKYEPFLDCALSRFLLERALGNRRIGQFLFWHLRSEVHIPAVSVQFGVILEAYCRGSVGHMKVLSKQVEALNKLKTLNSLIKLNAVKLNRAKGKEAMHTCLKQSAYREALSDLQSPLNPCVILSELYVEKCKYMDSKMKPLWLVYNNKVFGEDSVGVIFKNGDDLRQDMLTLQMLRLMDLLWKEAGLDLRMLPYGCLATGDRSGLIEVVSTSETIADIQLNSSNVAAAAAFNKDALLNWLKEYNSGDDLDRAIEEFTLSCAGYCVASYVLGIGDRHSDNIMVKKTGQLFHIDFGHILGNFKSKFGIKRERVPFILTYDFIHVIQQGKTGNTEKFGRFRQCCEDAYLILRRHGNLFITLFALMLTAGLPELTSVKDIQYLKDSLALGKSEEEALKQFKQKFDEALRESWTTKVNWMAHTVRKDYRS
Sequence of p110α (P42336 109-1068): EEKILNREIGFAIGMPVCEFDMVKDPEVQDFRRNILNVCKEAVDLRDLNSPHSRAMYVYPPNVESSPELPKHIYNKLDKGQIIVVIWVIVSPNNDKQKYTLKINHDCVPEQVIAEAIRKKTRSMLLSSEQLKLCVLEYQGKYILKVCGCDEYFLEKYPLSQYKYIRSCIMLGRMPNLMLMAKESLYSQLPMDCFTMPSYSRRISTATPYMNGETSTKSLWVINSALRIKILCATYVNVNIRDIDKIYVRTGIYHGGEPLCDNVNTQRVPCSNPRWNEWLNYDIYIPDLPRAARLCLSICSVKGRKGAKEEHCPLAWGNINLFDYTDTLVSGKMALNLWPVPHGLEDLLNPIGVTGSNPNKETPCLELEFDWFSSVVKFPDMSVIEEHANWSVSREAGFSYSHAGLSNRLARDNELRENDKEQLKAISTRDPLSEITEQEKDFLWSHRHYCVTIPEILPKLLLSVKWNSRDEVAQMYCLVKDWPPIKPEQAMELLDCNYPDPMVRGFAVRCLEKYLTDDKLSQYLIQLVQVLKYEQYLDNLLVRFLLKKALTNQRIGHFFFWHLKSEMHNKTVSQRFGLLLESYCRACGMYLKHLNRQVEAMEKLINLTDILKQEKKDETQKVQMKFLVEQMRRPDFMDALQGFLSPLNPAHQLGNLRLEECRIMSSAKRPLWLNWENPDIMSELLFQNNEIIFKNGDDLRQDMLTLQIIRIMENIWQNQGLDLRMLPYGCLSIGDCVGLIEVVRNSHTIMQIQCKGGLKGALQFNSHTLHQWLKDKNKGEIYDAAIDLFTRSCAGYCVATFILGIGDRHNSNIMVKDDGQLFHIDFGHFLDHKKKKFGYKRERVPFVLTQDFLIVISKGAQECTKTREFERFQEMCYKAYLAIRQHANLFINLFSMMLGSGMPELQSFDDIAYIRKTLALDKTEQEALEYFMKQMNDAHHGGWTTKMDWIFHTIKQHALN

For the compound `CCOc1ccc2c(c1OC)N=C(NC(=O)c1cccnc1)N1CCN=C21` [Compd 32 b, N ‐(8‐Ethoxy‐7‐methoxy‐2,3‐dihydroimidazo[1,2‐c]quinazolin‐5‐yl)nicotinamide], the concentration for half-maximal inhibition (IC50) against p110α was determined as 3.6 nM; on p110β it was 76.1 nM.
At p110β, `COc1c(OCCCN2CCOCC2)ccc2c1N=C(NC(=O)c1cnccn1)N1CCN=C21` [Compd 39 g, N ‐{7‐Methoxy‐8‐[3‐(morpholin‐4‐yl)propoxy]‐2,3‐dihydroimidazo[1,2‐c]quinazolin‐5‐yl}pyrazine‐2‐carboxamide] came in with an IC50 of 351 nM.
Compound `C=CCOc1c(OCCCN2CCOCC2)ccc2c1N=C(NC(=O)c1cccnc1)N1CCN=C21` [Compd 34 b, N ‐{7‐(Allyloxy)‐8‐[3‐(morpholin‐4‐yl)propoxy]‐2,3‐dihydroimidazo[1,2‐c]quinazolin‐5‐yl}nicotinamide] returned an IC50 at p110β of 22.6 nM.
With `COc1c(OCCCN2CCOCC2)ccc2c1N=C(NC(=O)c1ccc(N(C)C)nc1)N1CCN=C21` [Compd 39 f, 6‐(Dimethylamino)‐N‐{7‐methoxy‐8‐[3‐(morpholin‐4‐yl)propoxy]‐2,3‐dihydroimidazo[1,2‐c]quinazolin‐5‐yl}nicotinamide], the concentration for half-maximal inhibition (IC50) on p110α was 2.9 nM; on p110β, 58.7 nM.
In the case of `COc1c(OCCCN2CCOCC2)ccc2c1N=C(NC(=O)c1ccc3c(c1)OCO3)N1CCN=C21` [Compd 39 a, N ‐{7‐Methoxy‐8‐[3‐(morpholin‐4‐yl)propoxy]‐2,3‐dihydroimidazo[1,2‐c]quinazolin‐5‐yl}‐1,3‐benzodioxole‐5‐carboxamide], the half-maximal inhibitory concentration (IC50) on p110α is 20.9 nM; on p110β, 668 nM.
As to `COc1c(OCCCN2CCOCC2)ccc2c1N=C(NC(=O)c1cnc(N)nc1)N1CCN=C21` [Compd 39 i, 2‐Amino‐N‐{7‐methoxy‐8‐[3‐(morpholin‐4‐yl)propoxy]‐2,3‐dihydroimidazo[1,2‐c]quinazolin‐5‐yl}pyrimidine‐5‐carboxamide], the “plasma‐free fraction” value is recorded as 42.5% in [1], 42.4% in data set [3], 27.6% in data set [5] and 15.8% in data set [7]. In addition, in data set [2], the “volume of distribution (V ss)” value is 7 to 32 L/kg. Further, the concentration for half-maximal inhibition (IC50) was 11500 nM in the data set with BCRP [4], 7000 nM with P‐gp [8] (for digoxin) and 7600 nM in the data set with P‐gp [8] (for dipyridamole). Also, the “substrate of efflux transporter BCRP” value with BCRP [6] is given as “substrate”. In the data set with Caco2, the “Caco2 P app apical (A) to basal (B)” value was 5.69 ± 0.291 ×10⁻⁶ cm/s. The “substrate of efflux transporter P‐gp” value in the data set with P‐gp [9] is “substrate”.
For the compound `O=C(NC1=Nc2c(ccc(OCCCN3CCOCC3)c2OCC2CCCCC2)C2=NCCN12)c1cccnc1` [Compd 34 d, N ‐{7‐(Cyclohexylmethoxy)‐8‐[3‐(morpholin‐4‐yl)propoxy]‐2,3‐dihydroimidazo[1,2‐c]quinazolin‐5‐yl}nicotinamide], at p110β, the IC50 amounted to 88.5 nM.
For `COc1c(OCCCN2CCOCC2)ccc2c1N=C(NC(=O)c1cccnc1)N1CCN=C21` [Compd 32 g, N ‐{7‐Methoxy‐8‐[3‐(morpholin‐4‐yl)propoxy]‐2,3‐dihydroimidazo[1,2‐c]quinazolin‐5‐yl}nicotinamide], the figures for the IC50 against p110α and at p110β were 1.8 nM and 20.8 nM, respectively.
Consider `COc1c(OCCCN2CCOCC2)ccc2c1N=C(NC(=O)c1ccc(N)nc1)N1CCN=C21` [Compd 39 e, 6‐Amino‐N‐{7‐methoxy‐8‐[3‐(morpholin‐4‐yl)propoxy]‐2,3‐dihydroimidazo[1,2‐c]quinazolin‐5‐yl}nicotinamide], for which the figures for the IC50 at p110α and against p110β were 0.6 nM and 7.9 nM, respectively.
For `COc1c(O)ccc2c1N=C(NC(=O)c1cccnc1)N1CCN=C21` [Compd 31, N ‐(8‐Hydroxy‐7‐methoxy‐2,3‐dihydroimidazo[1,2‐c]quinazolin‐5‐yl)nicotinamide], the figures for the IC50 on p110α and on p110β were 8.7 nM and 210 nM, respectively.
Regarding `COc1c(OCCCN2CCOCC2)ccc2c1N=C(NC(=O)c1ccnc(N)c1)N1CCN=C21` [Compd 39 d, 2‐Amino‐N‐{7‐methoxy‐8‐[3‐(morpholin‐4‐yl)propoxy]‐2,3‐dihydroimidazo[1,2‐c]quinazolin‐5‐yl}isonicotinamide], the concentration for half-maximal inhibition (IC50) on p110α turned out to be 6.2 nM; at p110β, 16.6 nM.
Consider `O=C(NC1=Nc2c(ccc(OCCCN3CCOCC3)c2OCC2CCOCC2)C2=NCCN12)c1cccnc1` [Compd 34 e, N ‐{8‐[3‐(Morpholin‐4‐yl)propoxy]‐7‐[(tetrahydro‐2H‐pyran‐4‐yl)methoxy]‐2,3‐dihydroimidazo[1,2‐c]quinazolin‐5‐yl}nicotinamide], for which the IC50 at p110α was found to be 2.1 nM; at p110β, 18.2 nM.
In the case of `COc1c(OCC(C)C)ccc2c1N=C(NC(=O)c1cccnc1)N1CCN=C21` [Compd 32 c, N ‐(8‐Isobutoxy‐7‐methoxy‐2,3‐dihydroimidazo[1,2‐c]quinazolin‐5‐yl)nicotinamide], the 50% inhibitory concentration (IC50) was found to be 8 nM at p110α and 226 nM against p110β.
`COc1c(OCCCN(C)C)ccc2c1N=C(NC(=O)c1cccnc1)N1CCN=C21` [Compd 32 e, N ‐{8‐[3‐(Dimethylamino)propoxy]‐7‐methoxy‐2,3‐dihydroimidazo[1,2‐c]quinazolin‐5‐yl}nicotinamide]: the IC50 on p110α worked out at 3.6 nM; on p110β, 18 nM.
The compound `COc1c(OCCCCN2CCOCC2)ccc2c1N=C(NC(=O)c1cccnc1)N1CCN=C21` [Compd 32 i, N ‐{7‐Methoxy‐8‐[4‐(morpholin‐4‐yl)butoxy]‐2,3‐dihydroimidazo[1,2‐c]quinazolin‐5‐yl}nicotinamide] returned a 50% inhibitory concentration (IC50) against p110β of 88.1 nM.
For `COc1c(OCCN2CCOCC2)ccc2c1N=C(NC(=O)c1cccnc1)N1CCN=C21` [Compd 32 h, N ‐{7‐Methoxy‐8‐[2‐(morpholin‐4‐yl)ethoxy]‐2,3‐dihydroimidazo[1,2‐c]quinazolin‐5‐yl}nicotinamide], the IC50 was found to be 0.9 nM against p110α and 11.2 nM on p110β.
For `COc1c(OCc2ccccc2)ccc2c1N=C(NC(=O)c1cccnc1)N1CCN=C21` [Compd 30, N ‐[8‐(Benzyloxy)‐7‐methoxy‐2,3‐dihydroimidazo[1,2‐c]quinazolin‐5‐yl]nicotinamide], the IC50 amounted to 6.1 nM against p110α and 1510 nM against p110β.
As for `CC(C)COc1c(OCCCN2CCOCC2)ccc2c1N=C(NC(=O)c1cccnc1)N1CCN=C21` [Compd 34 c, N ‐{7‐Isobutoxy‐8‐[3‐(morpholin‐4‐yl)propoxy]‐2,3‐dihydroimidazo[1,2‐c]quinazolin‐5‐yl}nicotinamide], the IC50 at p110α was determined as 10.2 nM; against p110β it was 29.1 nM.
As for `COc1c(OCCCN2CCOCC2)ccc2c1N=C(NC(=O)c1cnc(N)nc1C)N1CCN=C21` [Compd 39 j, 2‐Amino‐N‐{7‐methoxy‐8‐[3‐(morpholin‐4‐yl)propoxy]‐2,3‐dihydroimidazo[1,2‐c]quinazolin‐5‐yl}‐4‐methylpyrimidine‐5‐carboxamide], the IC50 was found to be 0.4 nM on p110α and 1 nM on p110β.
Take `COc1c(OCCCN2CCOCC2)ccc2c1N=C(NC(=O)c1cncnc1)N1CCN=C21` [Compd 39 h, N ‐{7‐Methoxy‐8‐[3‐(morpholin‐4‐yl)propoxy]‐2,3‐dihydroimidazo[1,2‐c]quinazolin‐5‐yl}pyrimidine‐5‐carboxamide]: the 50% inhibitory concentration (IC50) at p110α stood at 132 nM; against p110β, 286 nM.
Compound `CCCOc1c(OCCCN2CCOCC2)ccc2c1N=C(NC(=O)c1cccnc1)N1CCN=C21` [Compd 34 a, N ‐{8‐[3‐(Morpholin‐4‐yl)propoxy]‐7‐propoxy‐2,3‐dihydroimidazo[1,2‐c]quinazolin‐5‐yl}nicotinamide] registered an IC50 at p110β of 7.8 nM.
Regarding `O=C(NC1=Nc2c(ccc(OCCCN3CCOCC3)c2O)C2=NCCN12)c1cccnc1` [Compd 33, N ‐{7‐Hydroxy‐8‐[3‐(morpholin‐4‐yl)propoxy]‐2,3‐dihydroimidazo[1,2‐c]quinazolin‐5‐yl}nicotinamide], at p110β, the 50% inhibitory concentration (IC50) worked out at 55.6 nM.
With `COc1c(OCCCN2CCOCC2)ccc2c1N=C(NC(=O)c1sc(C)nc1C)N1CCN=C21` [Compd 39 b, N ‐{7‐Methoxy‐8‐[3‐(morpholin‐4‐yl)propoxy]‐2,3‐dihydroimidazo[1,2‐c]quinazolin‐5‐yl}‐2,4‐dimethyl‐1,3‐thiazole‐5‐carboxamide], the IC50 came to 1.6 nM against p110α and 7.8 nM at p110β.
With `COc1c(OCCCN2CCOCC2)ccc2c1N=C(NC(=O)c1ccncc1)N1CCN=C21` [Compd 39 c, N ‐{7‐Methoxy‐8‐[3‐(morpholin‐4‐yl)propoxy]‐2,3‐dihydroimidazo[1,2‐c]quinazolin‐5‐yl}isonicotinamide], 63.7 nM corresponded to half-maximal inhibition on p110β (IC50).
On the same count and under the same terms, the same measure for `O=C(NC1=Nc2c(ccc(OCCCN3CCOCC3)c2OCc2ccncc2)C2=NCCN12)c1cccnc1` [Compd 34 f, N ‐{8‐[3‐(Morpholin‐4‐yl)propoxy]‐7‐[(pyridin‐4‐yl)methoxy]‐2,3‐dihydroimidazo[1,2‐c]quinazolin‐5‐yl}nicotinamide]: 19.3 nM.
With `COc1c(OCCCN2CCCCC2)ccc2c1N=C(NC(=O)c1cccnc1)N1CCN=C21` [Compd 32 f, N ‐{7‐Methoxy‐8‐[3‐(piperidin‐1‐yl)propoxy]‐2,3‐dihydroimidazo[1,2‐c]quinazolin‐5‐yl}nicotinamide], the concentration for half-maximal inhibition (IC50) on p110α came out at 2.9 nM; on p110β it was 18.3 nM.
